Data set [1] relates to DENV-2 16681 strain. Put plainly: DENV-2 antiviral assay (eGFP-labeled virus in Vero cells). It counts as cell-based, Dengue virus. The settings on record: DENV-2 16681 eGFP, MOI 0.5, 3 days.
For data set [2], the system named is DENV-1 strain TC974#666. Put plainly: Tetravalent RT-qPCR assay, serotype 1. It counts as cell-based, Dengue virus. The settings on record: Dengue virus, DENV1, Vero, 72 h, RT-qPCR serotype 1 TC974#666, Protocol A, Vero cells, day 3. How it is done: (§1) Tetravalent reverse transcriptase quantitative-PCR (RT-qPCR) assay The antiviral activity of the compounds of the invention was tested against DENV-1 strain TC974#666 (NCPV), DENV-2 strain 16681, DENV-3 strain H87 (NCPV) and DENV-4 strain H241 (NCPV) in a RT-qPCR assay. Therefore, Vero cells were infected with either DENV-1, or -2, or -3, or -4 in the presence or absence of test compounds. At day 3 post-infection, the cells were lysed and cell lysates were used to prepare cDNA of both a viral target (the 3′UTR of DENV; Table 2) and a cellular reference gene (β-actin, Table 2). Subsequently, a duplex real time PCR was performed on a Lightcycler480 instrument. The generated Cp value is inversely proportional to the amount of RNA expression of these targets. Inhibition of DENV replication by a test compound results in a shift of Cp's for the 3′UTR gene. On the other hand, if a test compound is toxic to the cells, a similar effect on β-actin expression will be observed. The comparative ΔΔCp method is used to calculate EC50, which is based on the relative gene expression of the target gene (3′UTR) normalized with the cellular housekeeping gene (β-actin). In addition, CC50 values are determined based on the Cp values acquired for the housekeeping gene β-actin.
(§2) The culture medium consisted of minimal essential medium supplemented with 2% of heat-inactivated fetal calf serum, 0.04% gentamycin (50mg/mL) and 2 mM of L-glutamine. Vero cells, obtained from ECACC, were suspended in culture medium and 75 μL/well was added in 96-well plates (10000 cells/well), which already contain the antiviral compounds. […] In addition, each plate contains wells which are assigned as virus controls (containing cells and virus in the absence of compound) and cell controls (containing cells in the absence of virus and compound). Once the cells were added in the plates, the plates were incubated in a fully humidified incubator (37° C., 5% CO2) until the next day. Dengue viruses serotype-1, 2, 3 and 4 were diluted in order to obtain a Cp of ˜22-24 in the assay. Therefore, 25 μL of virus suspension was added to all the wells containing test compound and to the wells assigned as virus control. In parallel, 25 μL of culture medium was added to the cell controls. Next, the plates were incubated for 3 days in a fully humidified incubator (37° C., 5% CO2). After 3 days, the supernatant was removed from the wells and the cells were washed twice with ice-cold PBS (˜100 μL). The cell pellets within the 96-well plates were stored at −80° C. for at least 1 day. Next, RNA was extracted using the Cells-to-CT™ lysis kit, according to the manufacturer's guideline (Life Technologies). The cell lysates can be stored at −80° C. or immediately used in the reverse transcription step.
(§3) In preparation of the reverse transcription step, mix A (table 3A) was prepared and 7.57 μL/well was dispensed in a 96-well plate. After addition of 5 μL of the cell lysates, a five minute denaturation step at 75° C. was performed (table 3B). Afterwards, 7.43 μL of mix B was added (table 3C) and the reverse transcription step was initiated (table 3D) to generate cDNA.
(§4) Finally, a RT-qPCR mix was prepared, mix C (table 4A), and 22.02 μL/well was dispensed in 96-well LightCycler qPCR plates to which 3μL of cDNA was added and the qPCR was performed according to the conditions in table 4B on a LightCycler 480.
(§5) Using the LightCycler software and an in-house LIMS system, dose response curves for each compound were calculated and the half maximal effective concentration (EC50) and the half maximal cytotoxic concentration (CC50) were determined (Tables 5-8).
A general note: Quantitative PCR measures a nucleic acid by following its amplification.

For data set [3], the system named is DENV-2 strain 16681. As to the kind of experiment: Tetravalent RT-qPCR assay, serotype 2. As to conditions: Dengue virus, DENV2, Vero, 72 h, RT-qPCR serotype 2 16681, Protocol A, Vero cells, day 3. It counts as cell-based, Dengue virus. The method, then:
as §1, §2, §3, §4, §5

In data set [4] the test system is DENV-3 strain H87. Put plainly: Tetravalent RT-qPCR assay, serotype 3. As to conditions: Dengue virus, DENV3, Vero, 72 h, RT-qPCR serotype 3 H87, Protocol A, Vero cells, day 3. The class given is cell-based, Dengue virus. How it is done:
as §1, §2, §3, §4, §5

Data set [5] has as its system DENV-4 strain H241. Put plainly: Tetravalent RT-qPCR assay, serotype 4. The class given is cell-based, Dengue virus. The settings on record: Dengue virus, DENV4, Vero, 72 h, RT-qPCR serotype 4 H241, Protocol A, Vero cells, day 3. How it is done:
as §1, §2, §3, §4, §5

A short description of data set [6]: in vitro. The settings on record: African green monkey. The class given is cell-based. How it is done:
as §1, §2, §5

In data set [7] the test system is Vero cells. The settings on record: African green monkey.
Data set [8] in a line: in vitro. The settings on record: African green monkey.
Data set [9] deals with DENV-2. As to conditions: analogous DENV-2 antiviral assay, reported activity; cited from earlier work.

Structures are written as SMILES. Read-outs that look alike come from different tables or passages of the source.

The EC50 is the concentration needed to bring the measured effect to its halfway point. On to `COc1cc(NC(C(=O)N2CCc3cc(OC)c(C(F)(F)F)cc32)c2ccc(Cl)cc2)cc(OCCO)c1` (single isomer, unassigned) [Compound 7B, 2-(4-chlorophenyl)-2-((3-(2-hydroxyethoxy)-5-methoxyphenyl)amino)-1-(5-methoxy-6-(trifluoromethyl)indolin-1-yl)ethanone], for which the EC50 in data set [1] stood at 1 nM; in data set [2], 5.1 nM; in data set [3], 0.96 nM; in data set [4], 30 nM; in data set [5] (read-out: EC50), 120 nM. The same compound came in with a CC50 at 3 days in data set [6] of 4100 nM. Further, the CC50 in data set [7] was 12000 nM.
Consider `COc1cc(NC(C(=O)N2CCc3cc(OC)c(OC(F)(F)F)cc32)c2ccc(Cl)cc2)cc(OCCO)c1` (single isomer, unassigned) [Compound 13A, 2-(4-chlorophenyl)-2-((3-(2-hydroxyethoxy)-5-methoxyphenyl)amino)-1-(5-methoxy-6-(trifluoromethoxy)indolin-1-yl)ethanone], for which the half-maximal effective concentration (EC50) came to 3.5 nM in [1]; 6.3 nM in data set [2]; 1.5 nM in [3]; 43 nM in [4]; 270 nM in data set [5]. The same compound displayed a CC50 at 3 days in data set [6] greater than 2500 nM. This compound had a CC50 in [7] of 12000 nM.
As to `COc1cc(NC(C(=O)N2CCc3ccc(C(F)(F)F)cc32)c2ccc(Cl)cc2F)cc(OCCO)c1` (single isomer, unassigned) [Compound 2B, 2-(4-chloro-2-fluorophenyl)-2-((3-(2-hydroxyethoxy)-5-methoxyphenyl)amino)-1-(6-(trifluoromethyl)indolin-1-yl)ethanone], the EC50 was found to be 2.5 nM in [1]; 2.4 nM in data set [2]; 3.2 nM in data set [3]; 29 nM in [4]; 170 nM in [5] (read-out: EC50). The same compound returned a CC50 at 3 days in data set [6] of 4800 nM. This compound also showed a CC50 in [7] of 13000 nM.
Consider `COc1cc(NC(C(=O)N2CCc3ccc(OC(F)(F)F)cc32)c2ccc(Cl)cc2F)cc(OCCO)c1` (single isomer, unassigned) [Compound 6B, 2-(4-chloro-2-fluorophenyl)-2-((3-(2-hydroxyethoxy)-5-methoxyphenyl)amino)-1-(6-(trifluoromethoxy)indolin-1-yl)ethanone], for which the concentration for a half-maximal effect (EC50) came to 2.5 nM in [1]; 3.1 nM in [2]; 2 nM in [3]; 28 nM in data set [4]; 140 nM in [5] (read-out: EC50). The CC50 at 3 days in data set [6] amounted to 4800 nM. In [7], this compound showed a CC50 of 12000 nM.
On to `COc1cc(NC(C(=O)N2CCc3ccc(OC(F)(F)F)cc32)c2ccc(Cl)cc2OC)cc(OCCO)c1` (single isomer, unassigned) [Compound 5A, 2-(4-chloro-2-methoxyphenyl)-2-((3-(2-hydroxyethoxy)-5-methoxyphenyl)amino)-1-(6-(trifluoromethoxy)indolin-1-yl)ethanone], for which the 50% effective concentration (EC50) is 1.4 nM in [1]; 2.6 nM in [2]; 3 nM in data set [3]; 20 nM in data set [4]; 210 nM in data set [5] (read-out: EC50). The CC50 at 3 days in [6] was determined as 4700 nM. The same compound yielded a CC50 in [8] of 9800 nM.
As for `CNC(=O)c1cccc(NC(C(=O)c2c[nH]c3ccccc23)c2ccccc2)c1` (stereo not shown) [(170) of WO-2013/045516], the concentration giving a half-maximal response (EC50) in [9] is 440 nM.
As for `COc1cccc(NC(C(=O)N2CCc3ccccc32)c2ccccc2)c1` (stereo not shown) [(56) of WO-2013/045516], in data set [9], the EC50 is 450 nM.

The record behind these values is patent publication US20200339511A1, “Substituted indoline derivatives as dengue viral replication inhibitors” (priority 2016, published 2020).
